Assay results taken from ChEMBL document CHEMBL5143732 (J Med Chem, 2022).
Converted amounts (≈) assume the structure as drawn.

Columns and labels:
Format in all cases: functional
Candida tropicalis = test: Antifungal activity against Candida tropicalis assessed as inhibition of fungal growth measured after 48 hrs by CLSI based agar dilution method
Candida albicans = test: Antifungal activity against Candida albicans assessed as inhibition of fungal growth measured after 48 hrs by CLSI based agar dilution method
Candida parapsilosis = test: Antifungal activity against Candida parapsilosis assessed as inhibition of fungal growth measured after 48 hrs by CLSI based agar dilution method; settings: Lodderomyces parapsilosis
Pichia kudriavzevii [1] = test: Antifungal activity against Candida krusei ATCC 6258 assessed as inhibition of fungal growth measured after 48 hrs by CLSI based agar dilution method
Cryptococcus neoformans = test: Antifungal activity against Cryptococcus neoformans ATCC 32609 assessed as inhibition of fungal growth measured after 48 hrs by CLSI based agar dilution method
Pichia kudriavzevii [2] = test: Antifungal activity against Candida krusei assessed as inhibition of fungal growth measured after 48 hrs by CLSI based agar dilution method

| Structure (SMILES) | MIC (Candida tropicalis) [µg/mL] | MIC (Candida albicans) [µg/mL] | MIC (Candida parapsilosis) [µg/mL] | MIC (Pichia kudriavzevii [1]) [µg/mL] | MIC (Cryptococcus neoformans) [µg/mL] | MIC (Pichia kudriavzevii [2]) [µg/mL] |
| --- | --- | --- | --- | --- | --- | --- |
| C[C@@H]1[C@H](O)[C@@H](C)/C=C/C=C/C=C/C=C/C=C/C=C/C=C/[C@H](O[C@@H]2O[C@H](C)[C@@H](O)[C@H](NC(=O)CCN)[C@@H]2O)C[C@@H]2O[C@](O)(C[C@@H](O)C[C@@H](O)[C@H](O)CC[C@@H](O)C[C@@H](O)CC(=O)O[C@H]1C)C[C@H](O)[C@H]2C(=O)NCCO | 8 (≈ 7.71 µM) | 2 (≈ 1.93 µM) | 8 (≈ 7.71 µM) | 4 (≈ 3.85 µM) | 2 (≈ 1.93 µM) | 2 (≈ 1.93 µM) |
| CNCC(=O)N[C@@H]1[C@H](O)[C@H](O[C@H]2/C=C/C=C/C=C/C=C/C=C/C=C/C=C/[C@H](C)[C@@H](O)[C@@H](C)[C@H](C)OC(=O)C[C@H](O)C[C@H](O)CC[C@@H](O)[C@H](O)C[C@H](O)C[C@]3(O)C[C@H](O)[C@@H](C(=O)NNC(=O)OC)[C@H](C2)O3)O[C@H](C)[C@H]1O | 1 (≈ 0.937 µM) | 0.125 (≈ 0.117 µM) | 4 (≈ 3.75 µM) | 2 (≈ 1.87 µM) | 0.5 (≈ 0.468 µM) | 0.125 (≈ 0.117 µM) |
| C[C@@H]1[C@H](O)[C@@H](C)/C=C/C=C/C=C/C=C/C=C/C=C/C=C/[C@H](O[C@@H]2O[C@H](C)[C@@H](O)[C@H](NC(=O)COCCN)[C@@H]2O)C[C@@H]2O[C@](O)(C[C@@H](O)C[C@@H](O)[C@H](O)CC[C@@H](O)C[C@@H](O)CC(=O)O[C@H]1C)C[C@H](O)[C@H]2C(=O)N1CCN(CCO)CC1 | 0.25 (≈ 0.22 µM) | 0.5 (≈ 0.44 µM) | 2 (≈ 1.76 µM) | 16 (≈ 14.1 µM) | 0.5 (≈ 0.44 µM) | 2 (≈ 1.76 µM) |
| CNCC(=O)N[C@@H]1[C@H](O)[C@H](O[C@H]2/C=C/C=C/C=C/C=C/C=C/C=C/C=C/[C@H](C)[C@@H](O)[C@@H](C)[C@H](C)OC(=O)C[C@H](O)C[C@H](O)CC[C@@H](O)[C@H](O)C[C@H](O)C[C@]3(O)C[C@H](O)[C@@H](C(=O)NCCCN(C)C)[C@H](C2)O3)O[C@H](C)[C@H]1O | 2 (≈ 1.85 µM) | 2 (≈ 1.85 µM) | 4 (≈ 3.71 µM) | 16 (≈ 14.8 µM) | 1 (≈ 0.926 µM) | 2 (≈ 1.85 µM) |
| C[C@@H]1[C@H](O)[C@@H](C)/C=C/C=C/C=C/C=C/C=C/C=C/C=C/[C@H](O[C@@H]2O[C@H](C)[C@@H](O)[C@H](NC(=O)CN)[C@@H]2O)C[C@@H]2O[C@](O)(C[C@@H](O)C[C@@H](O)[C@H](O)CC[C@@H](O)C[C@@H](O)CC(=O)O[C@H]1C)C[C@H](O)[C@H]2C(=O)NCCN(C)C | 2 (≈ 1.9 µM) | 1 (≈ 0.951 µM) | 1 (≈ 0.951 µM) | 16 (≈ 15.2 µM) | 0.5 (≈ 0.476 µM) | 1 (≈ 0.951 µM) |
| CNCC(=O)N[C@@H]1[C@H](O)[C@H](O[C@H]2/C=C/C=C/C=C/C=C/C=C/C=C/C=C/[C@H](C)[C@@H](O)[C@@H](C)[C@H](C)OC(=O)C[C@H](O)C[C@H](O)CC[C@@H](O)[C@H](O)C[C@H](O)C[C@]3(O)C[C@H](O)[C@@H](C(=O)N4CCN(C(C)=O)CC4)[C@H](C2)O3)O[C@H](C)[C@H]1O | 4 (≈ 3.62 µM) | 2 (≈ 1.81 µM) | 4 (≈ 3.62 µM) | 8 (≈ 7.24 µM) | 2 (≈ 1.81 µM) | 4 (≈ 3.62 µM) |
| C[C@@H]1[C@H](O)[C@@H](C)/C=C/C=C/C=C/C=C/C=C/C=C/C=C/[C@H](O[C@@H]2O[C@H](C)[C@@H](O)[C@H](NC(=O)CN)[C@@H]2O)C[C@@H]2O[C@](O)(C[C@@H](O)C[C@@H](O)[C@H](O)CC[C@@H](O)C[C@@H](O)CC(=O)O[C@H]1C)C[C@H](O)[C@H]2C(=O)NCCCN(C)C | 16 (≈ 15 µM) | 1 (≈ 0.939 µM) | 8 (≈ 7.51 µM) | 32 (≈ 30 µM) | 2 (≈ 1.88 µM) | 8 (≈ 7.51 µM) |
| C[C@@H]1[C@H](O)[C@@H](C)/C=C/C=C/C=C/C=C/C=C/C=C/C=C/[C@H](O[C@@H]2O[C@H](C)[C@@H](O)[C@H](NC(=O)CCN)[C@@H]2O)C[C@@H]2O[C@](O)(C[C@@H](O)C[C@@H](O)[C@H](O)CC[C@@H](O)C[C@@H](O)CC(=O)O[C@H]1C)C[C@H](O)[C@H]2C(=O)NCCN | 0.25 (≈ 0.241 µM) | 0.125 (≈ 0.121 µM) | 0.125 (≈ 0.121 µM) | 1 (≈ 0.964 µM) | 0.25 (≈ 0.241 µM) | 0.5 (≈ 0.482 µM) |
| C[C@@H]1[C@H](O)[C@@H](C)/C=C/C=C/C=C/C=C/C=C/C=C/C=C/[C@H](O[C@@H]2O[C@H](C)[C@@H](O)[C@H](NC(=O)CN)[C@@H]2O)C[C@@H]2O[C@](O)(C[C@@H](O)C[C@@H](O)[C@H](O)CC[C@@H](O)C[C@@H](O)CC(=O)O[C@H]1C)C[C@H](O)[C@H]2C(=O)NCCO | 4 (≈ 3.91 µM) | 1 (≈ 0.976 µM) | 4 (≈ 3.91 µM) | 4 (≈ 3.91 µM) | 2 (≈ 1.95 µM) | 2 (≈ 1.95 µM) |
| C[C@@H]1[C@H](O)[C@@H](C)/C=C/C=C/C=C/C=C/C=C/C=C/C=C/[C@H](O[C@@H]2O[C@H](C)[C@@H](O)[C@H](NC(=O)CCN)[C@@H]2O)C[C@@H]2O[C@](O)(C[C@@H](O)C[C@@H](O)[C@H](O)CC[C@@H](O)C[C@@H](O)CC(=O)O[C@H]1C)C[C@H](O)[C@H]2C(=O)NCCN(C)C | 0.5 (≈ 0.469 µM) | 0.5 (≈ 0.469 µM) | 2 (≈ 1.88 µM) | 16 (≈ 15 µM) | 0.125 (≈ 0.117 µM) | 0.5 (≈ 0.469 µM) |

Results, then the molecule that gave them:

| MIC (Candida tropicalis) [µg/mL] | MIC (Candida albicans) [µg/mL] | MIC (Candida parapsilosis) [µg/mL] | MIC (Pichia kudriavzevii [1]) [µg/mL] | MIC (Cryptococcus neoformans) [µg/mL] | MIC (Pichia kudriavzevii [2]) [µg/mL] | Structure (SMILES) |
| --- | --- | --- | --- | --- | --- | --- |
| 0.5 (≈ 0.496 µM) | 0.03 (≈ 0.0298 µM) | 1 (≈ 0.992 µM) | 1 (≈ 0.992 µM) | 0.06 (≈ 0.0595 µM) | 0.5 (≈ 0.496 µM) | CC(C)C(=O)NNC(=O)[C@H]1[C@@H]2C[C@@H](O[C@@H]3O[C@H](C)[C@@H](O)[C@H](N)[C@@H]3O)/C=C/C=C/C=C/C=C/C=C/C=C/C=C/[C@H](C)[C@@H](O)[C@@H](C)[C@H](C)OC(=O)C[C@H](O)C[C@H](O)CC[C@@H](O)[C@H](O)C[C@H](O)C[C@](O)(C[C@@H]1O)O2 |
| 8 (≈ 7.43 µM) | 4 (≈ 3.72 µM) | 16 (≈ 14.9 µM) | 16 (≈ 14.9 µM) | 2 (≈ 1.86 µM) | 8 (≈ 7.43 µM) | C[C@@H]1[C@H](O)[C@@H](C)/C=C/C=C/C=C/C=C/C=C/C=C/C=C/[C@H](O[C@@H]2O[C@H](C)[C@@H](O)[C@H](N)[C@@H]2O)C[C@@H]2O[C@](O)(C[C@@H](O)C[C@@H](O)[C@H](O)CC[C@@H](O)C[C@@H](O)CC(=O)O[C@H]1C)C[C@H](O)[C@H]2C(=O)NNC(=O)c1ccc(Cl)cc1 |
| 8 (≈ 7.5 µM) | 0.25 (≈ 0.234 µM) | 8 (≈ 7.5 µM) | 8 (≈ 7.5 µM) | 0.25 (≈ 0.234 µM) | 0.5 (≈ 0.468 µM) | COC(=O)NNC(=O)[C@H]1[C@@H]2C[C@@H](O[C@@H]3O[C@H](C)[C@@H](O)[C@H](NC(=O)CCN)[C@@H]3O)/C=C/C=C/C=C/C=C/C=C/C=C/C=C/[C@H](C)[C@@H](O)[C@@H](C)[C@H](C)OC(=O)C[C@H](O)C[C@H](O)CC[C@@H](O)[C@H](O)C[C@H](O)C[C@](O)(C[C@@H]1O)O2 |
| 4 (≈ 3.81 µM) | 0.125 (≈ 0.119 µM) | 2 (≈ 1.9 µM) | 4 (≈ 3.81 µM) | 0.125 (≈ 0.119 µM) | 0.5 (≈ 0.476 µM) | CNCC(=O)N[C@@H]1[C@H](O)[C@H](O[C@H]2/C=C/C=C/C=C/C=C/C=C/C=C/C=C/[C@H](C)[C@@H](O)[C@@H](C)[C@H](C)OC(=O)C[C@H](O)C[C@H](O)CC[C@@H](O)[C@H](O)C[C@H](O)C[C@]3(O)C[C@H](O)[C@@H](C(=O)NNC(C)=O)[C@H](C2)O3)O[C@H](C)[C@H]1O |
| 0.5 (≈ 0.503 µM) | 0.25 (≈ 0.251 µM) | 1 (≈ 1.01 µM) | 0.5 (≈ 0.503 µM) | 0.03 (≈ 0.0302 µM) | 0.5 (≈ 0.503 µM) | CCC(=O)NNC(=O)[C@H]1[C@@H]2C[C@@H](O[C@@H]3O[C@H](C)[C@@H](O)[C@H](N)[C@@H]3O)/C=C/C=C/C=C/C=C/C=C/C=C/C=C/[C@H](C)[C@@H](O)[C@@H](C)[C@H](C)OC(=O)C[C@H](O)C[C@H](O)CC[C@@H](O)[C@H](O)C[C@H](O)C[C@](O)(C[C@@H]1O)O2 |
